Patent US9834567B1, “Crystalline form of cefamandole nafate compound, preparation and preparing method thereof” (TIANJIN UNIVERSITY, priority 2014, dated 2017)

How the values were obtained:
Rabbits [1] = assay type: in vivo
Description: (§1) The novel crystalline form of Cefamandole Nafate compound of the present invention was tested by toxic reaction tests shown as follows (taking the crystalline form of Cefamandole Nafate obtained in Example 1 for example):
Rabbits were injected with 0.4˜2.1 g of Cefamandole Nafate each time with the interval of 15 min, and recording the changes of blood pressure and electrocardiogram.

Rabbits [2] = assay: Toxic reaction test: 15-day daily intravenous injection in rabbits (renal); assay type: in vivo; settings: 250 mg/kg intravenously daily for 15 days
Description: as §1
Rabbits were divided into 2 groups, every 4 animals in each group, and daily intravenously injected with 250 mg/kg Cefamandole Nafate for 15 days, while the control group was injected with 5 ml saline per day.

[3] = Storage stability of the crystalline product; assay type: physicochemical
Description: Said method has the following advantageous effects: simple procedure, easy operation, and low energy consumption. The prepared product has a melting range of 160˜170° C. with good thermal stability, and is conducive to the long-term preservation. […] The product is easy to crush and processed into dosage forms of a pharmaceutical composition, as well as low cost, and easier to implement on commercial and industrial scale.

[4] = Toxic reaction test: acute toxicity (LD50) in mice; settings: mouse, in vivo
Description: as §1
(§2) Mice were divided into 4 dose groups by weights, every 10 animals in each group, and administered by intravenous injection, subcutaneous injection and intraperitoneal injection with a concentration of […].

[5] = Toxic reaction test: acute toxicity (LD50) in rats; settings: rat, in vivo, intravenous injection
Description: as §1, §2

[6] = anesthetized rabbits, intravenous injection, 0.4~2.1 g each time
[7] = rabbits, dosage up to 4800 mg/kg

| SMILES | breathing (Rabbits [1]; [6]) | electrocardiogram and heart rate (Rabbits [1]; [6]) | death (Rabbits [1]; rabbits, dosage further increased above 4800 mg/kg) | blood pressure (Rabbits [1]; [7]) | electrocardiogram (Rabbits [1]; [7]) | respiration (Rabbits [1]; [7]) | renal tissue concentration (Rabbits [2]) | renal toxicity (Rabbits [2]) | degradation after placing for a long time [3] | LD50 ([4]; intravenous injection) [mg/kg] | LD50 ([4]; ip, intraperitoneal injection) [mg/kg] | LD50 ([4]; sc, subcutaneous injection) [mg/kg] | LD50 [5] [mg/kg] |
| --- | --- | --- | --- | --- | --- | --- | --- | --- | --- | --- | --- | --- | --- |
| Cn1nnnc1SCC1=C(C(=O)[O-])N2C(=O)[C@@H](NC(=O)[C@H](OC=O)c3ccccc3)[C@H]2SC1.[Na+] [Cefamandole Nafate, (6R, 7R)-7-R-(2-formyloxy-2-phenylacetamide)-3-[[(1-methyl-1H-tetrazol-5-yl)thio]methyl]-8-oxo-5-thia-1-azabicyclo [4.2.0] oct-2-ene-2-carboxylate sodium salt] | deepened and accelerated | did not change significantly | death occurred | significantly decreased | prolonged in P-R interval, depressed in ST segment, and ventricular arrhythmias | inhibited | increased | low | – | – | – | – | – |
| Cn1nnnc1SCC1=C(C(=O)[O-])N2C(=O)[C@@H](NC(=O)[C@H](OC=O)c3ccccc3)[C@H]2SC1.[Na+] [Example 1, (6R, 7R)-7-R-(2-formyloxy-2-phenylacetamide)-3-[[(1-methyl-1H-tetrazol-5-yl)thio]methyl]-8-oxo-5-thia-1-azabicyclo [4.2.0] oct-2-ene-2-carboxylate sodium salt] | – | – | – | – | – | – | – | – | without degradation | 4220 | 4500 | 7260 | 3420 |
